The structures appear in SMILES notation. “And” between values parts separate entries of the source, which are not always exact repeats. Identical values can stand only once.

Type in all cases: in vivo, C3H/HeN mice
The test system of test [1] is MDAH-MCa-4 tumours. In words: Tumour necrosis / residual viable tissue scored histologically (H&E sections).
Test [2] has as its system MDAH-MCa-4 tumours. Nature of the test: Tumour growth delay (time to reach 13 mm, treated minus control).
The subject of test [3] is MDAH-MCa-4 tumours. In words: Tumour blood flow by 99mTc pertechnetate wash-out (clearance rate constant k). To be noted: for time course of tumour blood flow inhibition: agent alone: 5-HT 700 µmol kg-1, DMXAA 70 µmol kg-1.

Take `NCCc1c[nH]c2ccc(O)cc12` [5-HT, 5-hydroxytryptamine]: the “dose-modifying factor (DMF) for necrosis (DMXAA dose for 50% reduction of viable tissue)” value with MDAH-MCa-4 tumours [1] (5-HT 700 µmol kg-1 co-administered with DMXAA, at 12 h) came to 2.3. The necrotic fraction in the test on MDAH-MCa-4 tumours [1] (5-HT alone 700 µmol kg-1, 12 h (control 8.8%)) came out at 38%. For the same molecule, the “dose-modifying factor (DMF) for growth delay (DMXAA dose for 5-day growth delay)” value with MDAH-MCa-4 tumours [2] (5-HT 700 µmol kg-1 co-administered with DMXAA) is reported as 2.0. Moreover, the “Tumour growth delay, Expt 2” value with MDAH-MCa-4 tumours [2] (single agent i.p.: bioreductive drug at its MTD, DMXAA 80 µmol kg-1, 5-HT 700 µmol kg-1, mean ± s.e.m.) is on record as -2.9 + 0.7 days. Besides, the “dose-modifying factor (DMF) for blood flow inhibition by DMXAA” value in the test on MDAH-MCa-4 tumours [3] (5-HT 700 µmol kg-1 co-administered with DMXAA, at 4 h) is recorded as above 3. Also, the “effect on tumour blood flow at 4 h” value in the test on MDAH-MCa-4 tumours [3] (5-HT alone 700 µmol kg-1 i.p.) was “little effect”. Further, the “time course of tumour blood flow inhibition” value in the test with MDAH-MCa-4 tumours [3] is “weak and transient inhibition”.

`Cc1ccc2c(=O)c3cccc(CC(=O)O)c3oc2c1C` [DMXAA, 5,6-dimethylxanthenone-4-acetic acid]: the necrosis in the test with MDAH-MCa-4 tumours [1] (DMXAA 60 µmol kg-1 and above co-administered with 5-HT 700 µmol kg-1, 12 h) is given as above 99%. The “threshold dose for the necrotizing effect” value with MDAH-MCa-4 tumours [1] (DMXAA alone i.p., 12 h) is recorded as “approximately 60 µmol kg-1”. Besides, the “doubling time of fraction of viable tissue after treatment” value in the test on MDAH-MCa-4 tumours [1] (between 1 and 4 days after DMXAA 80 µmol kg-1) was found to be 1.0 days. The “predicted growth delay (from regrowth of residual viable tissue)” value in the test with MDAH-MCa-4 tumours [2] (mouse, in vivo) was 6.0 days and 5.8 days. Also, in the test on MDAH-MCa-4 tumours [3] (DMXAA 20 µmol kg-1 co-administered with 5-HT 700 µmol kg-1), the “time to maximal tumour blood flow inhibition” value is given as at most 1 h. In addition, the “DMXAA dose giving 50% inhibition of tumour blood flow” value in the test on MDAH-MCa-4 tumours [3] (DMXAA alone i.p., 4 h after administration) turned out to be 60 µmol/kg. Moreover, the “time course of tumour blood flow inhibition” value in the test on MDAH-MCa-4 tumours [3] is listed as “progressive inhibition over 4 h with no recovery by 24 h”.

`Nc1n[n+]([O-])c2ccccc2[n+]1[O-]` [TIRA, tirapazamine]: in the test with MDAH-MCa-4 tumours [2] (mouse, in vivo), the “DMF relative to DMXAA alone (5-day growth delay)” value worked out at 2.6 and the “factor lowering the DMXAA dose required for a 5-day growth delay” value was determined as 1.8. Besides, in the test on MDAH-MCa-4 tumours [2] (mouse, in vivo, ip), the “Tumour growth delay (one experiment only, column not discernible)” value was found to be 2.7 ± 1.4 days.
